Test results: ChEMBL document CHEMBL1201862, “PubChem BioAssay data set” (2004)
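48-hour exposure; five concentrations; linearly interpolated endpoints. GI50 = concentration required for 50% inhibition of growth.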 The source made the active and inactive calls. Cut-off read from the data, not from the text of the source: active = GI50 up to about 1.1 µM and inactive = higher.

How the values were obtained:
Assay in all cases: NCI anticancer screen, dose series, 48 h
[1] = tested on: 786-0
[2] = tested on: A498
[3] = tested on: A549
[4] = tested on: ACHN
[5] = tested on: BT-549
[6] = tested on: CAKI-1
[7] = tested on: COLO 205
[8] = tested on: DU-145
[9] = tested on: EKVX
[10] = tested on: HCC 2998
[11] = tested on: HCT-116
[12] = tested on: HCT-15
[13] = tested on: HL-60
[14] = tested on: HOP-62
[15] = tested on: HOP-92
[16] = tested on: Hs-578T
[17] = tested on: IGROV-1
[18] = tested on: K562
[19] = tested on: KM12
[20] = tested on: LOX IMVI
[21] = tested on: M14
[22] = tested on: MCF7
[23] = tested on: MDA-MB-231
[24] = tested on: MDA-MB-435
[25] = tested on: MOLT-4
[26] = tested on: Malme-3M
[27] = tested on: NCI-H226
[28] = tested on: NCI-H23
[29] = tested on: NCI-H460
[30] = tested on: NCI-H522
[31] = tested on: NCI/ADR-RES
[32] = tested on: OVCAR-3
[33] = tested on: OVCAR-4
[34] = tested on: OVCAR-5
[35] = tested on: OVCAR-8
[36] = tested on: PC-3
[37] = tested on: RPMI-8226
[38] = tested on: RXF 393
[39] = tested on: SF-268
[40] = tested on: SF-295
[41] = tested on: SF-539
[42] = tested on: SK-MEL-28
[43] = tested on: SK-MEL-2
[44] = tested on: SK-OV-3
[45] = tested on: SNB-19
[46] = tested on: SNB-75
[47] = tested on: SR
[48] = tested on: SW-620
[49] = tested on: T47D
[50] = tested on: TK-10
[51] = tested on: U-251
[52] = tested on: UACC-62
[53] = tested on: UO-31
[54] = tested on: CCRF-CEM
[55] = tested on: HT-29
[56] = tested on: SK-MEL-5
[57] = tested on: UACC-257

In the case of `COc1ccc(-c2cc(-c3ccc(Nc4ccnc5cc(Cl)ccc45)cc3)[nH]c(=O)c2C#N)cc1`, the GI50 [1] is reported as > 100 µM (inactive), the GI50 [2] is reported as > 100 µM (inactive) and the GI50 [3] is reported as > 100 µM (inactive). For the same compound, the GI50 [4] was > 100 µM (inactive), the GI50 [5] was > 100 µM (inactive) and the GI50 [6] was > 100 µM (inactive). The GI50 [7] was > 100 µM (inactive), the GI50 [8] was > 100 µM (inactive) and the GI50 [9] was > 100 µM (inactive). For the same compound, the GI50 [10] was > 100 µM (inactive), the GI50 [11] was > 100 µM (inactive) and the GI50 [12] was greater than 100 µM. For the same compound, the GI50 [13] was > 100 µM (inactive), the GI50 [14] was 80 µM (inactive) and the GI50 [15] was > 100 µM (inactive). The GI50 [16] was > 100 µM (inactive), the GI50 [17] was > 100 µM (inactive) and the GI50 [18] was > 100 µM (inactive). The GI50 [19] was 2.86 µM (inactive), the GI50 [20] was > 100 µM (inactive) and the GI50 [21] was > 100 µM (inactive). The GI50 [22] was > 100 µM (inactive), the GI50 [23] was > 100 µM (inactive) and the GI50 [24] was > 100 µM (inactive). The GI50 [25] was > 100 µM (inactive), the GI50 [26] was > 100 µM (inactive) and the GI50 [27] was > 100 µM (inactive). The GI50 [28] was > 100 µM (inactive), the GI50 [29] was > 100 µM (inactive) and the GI50 [30] was > 100 µM (inactive). The GI50 [31] was > 100 µM (inactive), the GI50 [32] was > 100 µM (inactive) and the GI50 [33] was > 100 µM (inactive). For the same compound, the GI50 [34] was > 100 µM (inactive), the GI50 [35] was > 100 µM (inactive) and the GI50 [36] was > 100 µM (inactive). For the same compound, the GI50 [37] was > 100 µM (inactive), the GI50 [38] was > 100 µM (inactive) and the GI50 [39] was > 100 µM (inactive). The GI50 [40] was > 100 µM (inactive), the GI50 [41] was > 100 µM (inactive) and the GI50 [42] was > 100 µM (inactive). For the same compound, the GI50 [43] was > 100 µM (inactive), the GI50 [44] was > 100 µM (inactive) and the GI50 [45] was 77.4 µM (inactive). For the same compound, the GI50 [46] was > 100 µM (inactive), the GI50 [47] was > 100 µM (inactive) and the GI50 [48] was > 100 µM (inactive). The GI50 [49] was > 100 µM (inactive), the GI50 [50] was 72.4 µM (inactive) and the GI50 [51] was > 100 µM (inactive). The GI50 [52] was > 100 µM (inactive) and the GI50 [53] was > 100 µM (inactive).

With `O=C(O)c1ccc2nc(-c3ccccn3)c(-c3ccccn3)nc2c1` the GI50 [1] was > 100 µM (inactive), the GI50 [2] was > 100 µM (inactive) and the GI50 [4] was > 100 µM (inactive). For the same compound, the GI50 [5] was > 100 µM (inactive), the GI50 [6] was > 100 µM (inactive) and the GI50 [54] was > 100 µM (inactive). The GI50 [7] was > 100 µM (inactive), the GI50 [8] was > 100 µM (inactive) and the GI50 [9] was > 100 µM (inactive). The GI50 [10] was > 100 µM (inactive), the GI50 [11] was > 100 µM (inactive) and the GI50 [12] was greater than 100 µM. For the same compound, the GI50 [13] was > 100 µM (inactive), the GI50 [14] was > 100 µM (inactive) and the GI50 [15] was > 100 µM (inactive). The GI50 [55] was > 100 µM (inactive), the GI50 [16] was > 100 µM (inactive) and the GI50 [17] was > 100 µM (inactive). The GI50 [18] was > 100 µM (inactive), the GI50 [19] was > 100 µM (inactive) and the GI50 [20] was > 100 µM (inactive). The GI50 [21] was > 100 µM (inactive), the GI50 [22] was > 100 µM (inactive) and the GI50 [23] was > 100 µM (inactive). For the same compound, the GI50 [24] was > 100 µM (inactive), the GI50 [25] was > 100 µM (inactive) and the GI50 [27] was > 100 µM (inactive). For the same compound, the GI50 [28] was > 100 µM (inactive), the GI50 [29] was > 100 µM (inactive) and the GI50 [31] was > 100 µM (inactive). The GI50 [33] was > 100 µM (inactive), the GI50 [35] was > 100 µM (inactive) and the GI50 [36] was > 100 µM (inactive). The GI50 [37] was > 100 µM (inactive), the GI50 [38] was > 100 µM (inactive) and the GI50 [39] was > 100 µM (inactive). The GI50 [40] was > 100 µM (inactive), the GI50 [41] was > 100 µM (inactive) and the GI50 [42] was > 100 µM (inactive). The GI50 [43] was > 100 µM (inactive), the GI50 [56] was > 100 µM (inactive) and the GI50 [44] was > 100 µM (inactive). For the same compound, the GI50 [45] was > 100 µM (inactive), the GI50 [46] was > 100 µM (inactive) and the GI50 [47] was > 100 µM (inactive). The GI50 [48] was > 100 µM (inactive), the GI50 [49] was > 100 µM (inactive) and the GI50 [50] was > 100 µM (inactive). For the same compound, the GI50 [51] was > 100 µM (inactive), the GI50 [57] was > 100 µM (inactive) and the GI50 [52] was > 100 µM (inactive). The GI50 [53] was > 100 µM (inactive).
